# Results as given in ChEMBL document CHEMBL1201861, “Genomics of Drug Sensitity in Cancer screening data, Wellcome Trust Sanger Institute”.
# Columns and labels:
# Format in all cases: functional, cell-based
# NCI-H292 = assay: cells; conditions: Homo sapiens;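 note: growth inhibition of NCI-H292 cells, read out with a cell viability assay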
# Description: SANGER: Inhibition of human NCI-H292 cell growth in a cell viability assay.
# NCI-H2081 = assay: cells; conditions: Homo sapiens;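 note: growth inhibition of human NCI-H2081 cells, read out with a cell viability assay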
# Description: SANGER: Inhibition of human NCI-H2081 cell growth in a cell viability assay.
# Calu-3 = assay: cells; conditions: Homo sapiens;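 note: growth inhibition of human Calu-3 cells, determined with a cell viability assay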
# Description: SANGER: Inhibition of human Calu-3 cell growth in a cell viability assay.
# KYSE-150 cell line = assay: cells; conditions: Homo sapiens;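 note: growth inhibition of human KYSE-150 cells, read out with a cell viability assay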
# Description: SANGER: Inhibition of human KYSE-150 cell growth in a cell viability assay.
# MDA-MB-134-VI = assay: cells; conditions: Homo sapiens
# Description: SANGER: Inhibition of human MDA-MB-134-VI cell growth in a cell viability assay.
# YAPC = assay: cells; conditions: Homo sapiens;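 note: growth inhibition of YAPC cells, measured with a cell viability assay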
# Description: SANGER: Inhibition of human YAPC cell growth in a cell viability assay.
# ASPC1 = assay: cells; conditions: Homo sapiens;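 note: growth inhibition of AsPC-1 cells, read out with a cell viability assay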
# Description: SANGER: Inhibition of human AsPC-1 cell growth in a cell viability assay.
# GAMG = assay: cells; conditions: Homo sapiens;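 note: cell growth inhibition measured by a viability assay in the GAMG human cell line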
# Description: SANGER: Inhibition of human GAMG cell growth in a cell viability assay.
# HO-1-N-1 = assay: cells; conditions: Homo sapiens;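 note: growth inhibition of human HO-1-N-1 cells, read out with a cell viability assay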
# Description: SANGER: Inhibition of human HO-1-N-1 cell growth in a cell viability assay.
# LCLC-97TM1 = assay: cells; conditions: Homo sapiens;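 note: cell viability assay measuring growth inhibition of human LCLC-97TM1 cells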
# Description: SANGER: Inhibition of human LCLC-97TM1 cell growth in a cell viability assay.
# T47D = assay: cells; conditions: Homo sapiens;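 note: growth inhibition of human T47D cells, measured with a cell viability assay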
# Description: SANGER: Inhibition of human T47D cell growth in a cell viability assay.
# SW13 = assay: cells; conditions: Homo sapiens;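 note: IC50 is inhibition of SW13 cell growth, read out with a cell viability assay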
# Description: SANGER: Inhibition of human SW13 cell growth in a cell viability assay.
# MKN-7 = assay: cells; conditions: Homo sapiens;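 note: growth inhibition of MKN-7 cells, read out with a cell viability assay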
# Description: SANGER: Inhibition of human MKN7 cell growth in a cell viability assay.
# NCI-H716 = assay: cells; conditions: Homo sapiens;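 note: growth inhibition of human NCI-H716 cells, measured by a cell viability assay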
# Description: SANGER: Inhibition of human NCI-H716 cell growth in a cell viability assay.
# MDA-MB-231 = assay: cells; conditions: Homo sapiens
# Description: SANGER: Inhibition of human MDA-MB-231 cell growth in a cell viability assay.
# H4 = assay: cells; conditions: Homo sapiens
# Description: SANGER: Inhibition of human H4 cell growth in a cell viability assay.
# NCI-H520 = assay: cells; conditions: Homo sapiens;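 note: growth inhibition of NCI-H520 cells, measured by a cell viability assay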
# Description: SANGER: Inhibition of human NCI-H520 cell growth in a cell viability assay.
# SK-OV-3 = assay: cells; conditions: Homo sapiens;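 note: growth inhibition of SK-OV-3 human cells, read out with a cell viability assay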
# Description: SANGER: Inhibition of human SK-OV-3 cell growth in a cell viability assay.
# A204 = assay: cells; conditions: Homo sapiens;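 note: growth inhibition of human A204 cells, read out with a cell viability assay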
# Description: SANGER: Inhibition of human A204 cell growth in a cell viability assay.
# PC-14 = assay: cells; conditions: Homo sapiens;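 note: cell viability assay measuring inhibition of PC-14 cell growth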
# Description: SANGER: Inhibition of human PC-14 cell growth in a cell viability assay.
# NCI-H2141 = assay: cells; conditions: Homo sapiens;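 note: growth inhibition of human NCI-H2141 cells, read out with a cell viability assay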
# Description: SANGER: Inhibition of human NCI-H2141 cell growth in a cell viability assay.
# KU-19-19 = assay: cells; conditions: Homo sapiens
# Description: SANGER: Inhibition of human KU-19-19 cell growth in a cell viability assay.
# LP-1 = assay: cells; conditions: Homo sapiens;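 note: growth inhibition of human LP-1 cells, with the read-out taken from a cell viability assay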
# Description: SANGER: Inhibition of human LP-1 cell growth in a cell viability assay.
# RPMI 8402 = assay: SANGER: Inhibition of human RPMI-8402 cell growth in a cell viability assay.
# LN-405 = assay: cells; conditions: Homo sapiens
# Description: SANGER: Inhibition of human LN-405 cell growth in a cell viability assay.
# KYSE-510 = assay: cells; conditions: Homo sapiens;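 note: cell viability readout used to measure how strongly growth of the cell line is suppressed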
# Description: SANGER: Inhibition of human KYSE-510 cell growth in a cell viability assay.
# COLO-741 = assay: cells; conditions: Homo sapiens
# Description: SANGER: Inhibition of human COLO-741 cell growth in a cell viability assay.
# NCI-H1437 = assay: cells; conditions: Homo sapiens;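 note: growth inhibition of human NCI-H1437 cells, read out by a cell viability assay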
# Description: SANGER: Inhibition of human NCI-H1437 cell growth in a cell viability assay.
# NCI-H1623 = assay: cells; conditions: Homo sapiens;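 note: cell viability assay used as the read-out for growth inhibition of NCI-H1623 cells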
# Description: SANGER: Inhibition of human NCI-H1623 cell growth in a cell viability assay.
# SNU-16 = assay: cells; conditions: Homo sapiens;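 note: growth inhibition of human SNU-16 cells, determined with a cell viability readout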
# Description: SANGER: Inhibition of human NCI-SNU-16 cell growth in a cell viability assay.
# SK-MM-2 = assay: cells; conditions: Homo sapiens;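 note: growth inhibition of human SK-MM-2 cells, read out with a cell viability assay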
# Description: SANGER: Inhibition of human SK-MM-2 cell growth in a cell viability assay.
# HGC-27 = assay: cells; conditions: Homo sapiens;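 note: growth inhibition of human HGC-27 cells, read out in a cell viability assay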
# Description: SANGER: Inhibition of human HGC-27 cell growth in a cell viability assay.
# J82 = assay: cells; conditions: Homo sapiens;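 note: growth inhibition of J82 cells, read out with a cell viability assay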
# Description: SANGER: Inhibition of human J82 cell growth in a cell viability assay.
# HCC1806 = assay: cells; conditions: Homo sapiens;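 note: growth inhibition of the cancer cell line, determined with a cell viability assay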
# Description: SANGER: Inhibition of human HCC1806 cell growth in a cell viability assay.
# NCI-H661 = assay: cells; conditions: Homo sapiens;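 note: cell viability assay read-out, IC50 being the concentration that inhibits growth of the cells by half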
# Description: SANGER: Inhibition of human NCI-H661 cell growth in a cell viability assay.
# G-361 = assay: cells; conditions: Homo sapiens
# NCI-H1693 = assay: cells; conditions: Homo sapiens;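 note: growth inhibition of the human cell line, read out with a cell viability assay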
# Description: SANGER: Inhibition of human NCI-H1693 cell growth in a cell viability assay.
# COLO-679 = assay: cells; conditions: Homo sapiens
# Description: SANGER: Inhibition of human COLO-679 cell growth in a cell viability assay.
# NB12 = assay: cells; conditions: Homo sapiens;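 note: growth inhibition of human NB12 cells, read out by a cell viability assay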
# Description: SANGER: Inhibition of human NB12 cell growth in a cell viability assay.
# OE33 = assay: cells; conditions: Homo sapiens;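 note: growth inhibition of human OE33 cells, measured by a cell viability assay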
# Description: SANGER: Inhibition of human OE33 cell growth in a cell viability assay.
# SK-MES-1 = assay: cells; conditions: Homo sapiens;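 note: growth inhibition of human SK-MES-1 cells, read out with a cell viability assay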
# Description: SANGER: Inhibition of human SK-MES-1 cell growth in a cell viability assay.
# PC-3 = assay: cells; conditions: Homo sapiens;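 note: cell viability assay measuring growth inhibition of PC-3 cells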
# Description: SANGER: Inhibition of human PC-3 cell growth in a cell viability assay.
# NCI-H2452 = assay: cells; conditions: Homo sapiens;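 note: growth inhibition of NCI-H2452 cells, read out with a cell viability assay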
# Description: SANGER: Inhibition of human NCI-H2452 cell growth in a cell viability assay.
# DMS-153 = assay: cells; conditions: Homo sapiens
# Description: SANGER: Inhibition of human DMS-153 cell growth in a cell viability assay.
# BHY = assay: cells; conditions: Homo sapiens;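 note: cell growth inhibition read out by a viability assay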
# Description: SANGER: Inhibition of human BHY cell growth in a cell viability assay.
# RO82-W-1 = assay: cells; conditions: Homo sapiens;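 note: growth inhibition of human RO82-W-1 cells, measured with a cell viability assay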
# Description: SANGER: Inhibition of human RO82-W-1 cell growth in a cell viability assay.
# MDA-MB-453 = assay: cells; conditions: Homo sapiens
# Description: SANGER: Inhibition of human MDA-MB-453 cell growth in a cell viability assay.
# AN3-CA = assay: cells; conditions: Homo sapiens;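 note: growth inhibition of human AN3-CA cells measured by a cell viability assay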
# Description: SANGER: Inhibition of human AN3-CA cell growth in a cell viability assay.
# UACC-62 = assay: cells; conditions: Homo sapiens;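 note: growth inhibition of human UACC-62 cells, read out by a cell viability assay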
# Description: SANGER: Inhibition of human UACC-62 cell growth in a cell viability assay.
# NCI-H345 = assay: cells; conditions: Homo sapiens;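 note: growth inhibition of NCI-H345 cells measured with a cell viability assay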
# Description: SANGER: Inhibition of human NCI-H345 cell growth in a cell viability assay.
# NY = assay: cells; conditions: Homo sapiens
# Description: SANGER: Inhibition of human NY cell growth in a cell viability assay.
# RMG-I = assay: cells; conditions: Homo sapiens;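 note: growth inhibition of human RMG-I cells, read out with a cell viability assay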
# Description: SANGER: Inhibition of human RMG-I cell growth in a cell viability assay.
# Daudi = assay: cells; conditions: Homo sapiens;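 note: growth inhibition of Daudi cells, read out by a viability assay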
# Description: SANGER: Inhibition of human Daudi cell growth in a cell viability assay.
# CAL-120 = assay: cells; conditions: Homo sapiens;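 note: cell growth inhibition, read out as cell viability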
# Description: SANGER: Inhibition of human CAL-120 cell growth in a cell viability assay.
# COLO-680N = assay: cells; conditions: Homo sapiens;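 note: cell viability assay used to measure inhibition of COLO-680N cell growth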
# Description: SANGER: Inhibition of human COLO-680N cell growth in a cell viability assay.
# CAL-51 = assay: cells; conditions: Homo sapiens;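 note: human CAL-51 cell line, growth inhibition read out via a cell viability assay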
# Description: SANGER: Inhibition of human CAL-51 cell growth in a cell viability assay.
# CPC-N = assay: cells; conditions: Homo sapiens;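 note: growth inhibition of CPC-N cells, with a cell viability assay as the readout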
# Description: SANGER: Inhibition of human CPC-N cell growth in a cell viability assay.
# RVH-421 = assay: cells; conditions: Homo sapiens
# Description: SANGER: Inhibition of human RVH-421 cell growth in a cell viability assay.
# HCC1937 = assay: cells; conditions: Homo sapiens;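 note: growth inhibition measured with a cell viability read-out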
# Description: SANGER: Inhibition of human HCC1937 cell growth in a cell viability assay.
# CESS = assay: SANGER: Inhibition of human CESS cell growth in a cell viability assay.
# NCI-H727 = assay: cells; conditions: Homo sapiens;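 note: growth inhibition of human NCI-H727 cells, read out with a cell viability assay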
# Description: SANGER: Inhibition of human NCI-H727 cell growth in a cell viability assay.
# RCM-1 = assay: cells; conditions: Homo sapiens;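 note: growth inhibition of the RCM-1 line, determined with a cell viability readout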
# Description: SANGER: Inhibition of human RCM-1 cell growth in a cell viability assay.
# CAL-148 = assay: cells; conditions: Homo sapiens
# Description: SANGER: Inhibition of human CAL-148 cell growth in a cell viability assay.
# ECC4 = assay: cells; conditions: Homo sapiens;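 note: growth inhibition of ECC4 cells, read out with a cell viability assay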
# Description: SANGER: Inhibition of human ECC4 cell growth in a cell viability assay.
# SW1463 = assay: cells; conditions: Homo sapiens
# Description: SANGER: Inhibition of human SW1463 cell growth in a cell viability assay.
smiles,measurement,setting,value
CO[C@@]12[C@H](COC(N)=O)C3=C(C(=O)C(C)=C(N)C3=O)N1C[C@@H]1N[C@@H]12 [MITOMYCIN],IC50,NCI-H292,884 nM
same,IC50,NCI-H2081,741 nM
same,IC50,Calu-3,321 nM
same,IC50,KYSE-150 cell line,34.1 nM
same,IC50,MDA-MB-134-VI,2160 nM
same,IC50,YAPC,4370 nM
same,IC50,ASPC1,2900 nM
same,IC50,GAMG,428 nM
same,IC50,HO-1-N-1,441 nM
same,IC50,LCLC-97TM1,139 nM
same,IC50,T47D,6370 nM
same,IC50,SW13,642 nM
same,IC50,MKN-7,> 16000 nM
same,IC50,NCI-H716,2820 nM
same,IC50,MDA-MB-231,3240 nM
same,IC50,H4,< 62.5 nM
same,IC50,NCI-H520,169 nM
same,IC50,SK-OV-3,143 nM
same,IC50,A204,84.2 nM
same,IC50,PC-14,491 nM
same,IC50,NCI-H2141,853 nM
same,IC50,KU-19-19,3360 nM
same,IC50,LP-1,4560 nM
same,IC50,RPMI 8402,17.1 nM
same,IC50,LN-405,2150 nM
same,IC50,KYSE-510,< 62.5 nM
same,IC50,COLO-741,2200 nM
same,IC50,NCI-H1437,126 nM
same,IC50,NCI-H1623,1010 nM
same,IC50,SNU-16,6740 nM
same,IC50,SK-MM-2,2720 nM
same,IC50,HGC-27,49.3 nM
same,IC50,J82,< 62.5 nM
same,IC50,HCC1806,135 nM
same,IC50,NCI-H661,542 nM
same,IC50,G-361,124 nM
same,IC50,NCI-H1693,900 nM
same,IC50,COLO-679,90.2 nM
same,IC50,NB12,1200 nM
same,IC50,OE33,338 nM
same,IC50,SK-MES-1,51.1 nM
same,IC50,PC-3,4070 nM
same,IC50,NCI-H2452,8940 nM
same,IC50,DMS-153,425 nM
same,IC50,BHY,75.3 nM
same,IC50,RO82-W-1,13300 nM
same,IC50,MDA-MB-453,1080 nM
same,IC50,AN3-CA,523 nM
same,IC50,UACC-62,2160 nM
same,IC50,NCI-H345,4730 nM
same,IC50,NY,657 nM
same,IC50,RMG-I,3460 nM
same,IC50,Daudi,392 nM
same,IC50,CAL-120,5960 nM
same,IC50,COLO-680N,244 nM
same,IC50,CAL-51,30.9 nM
same,IC50,CPC-N,381 nM
same,IC50,RVH-421,629 nM
same,IC50,HCC1937,594 nM
same,IC50,CESS,225 nM
same,IC50,NCI-H727,212 nM
same,IC50,RCM-1,847 nM
same,IC50,CAL-148,17.8 nM
same,IC50,ECC4,5070 nM
same,IC50,SW1463,2080 nM
C/C=C(/C)C(=O)O[C@H]1C(C)=C2[C@H]([C@@H]1OC(=O)CCCCCCC)[C@@](C)(OC(C)=O)C[C@H](OC(=O)CCC)[C@@]1(O)[C@H]2OC(=O)[C@@]1(C)O [THAPSIGARGIN],IC50,NCI-H292,14.9 nM
same,IC50,NCI-H2081,> 512 nM
same,IC50,Calu-3,> 512 nM
same,IC50,KYSE-150 cell line,22.2 nM
same,IC50,MDA-MB-134-VI,> 512 nM
same,IC50,YAPC,89.6 nM
same,IC50,ASPC1,> 512 nM
same,IC50,GAMG,8.86 nM
same,IC50,HO-1-N-1,> 512 nM
same,IC50,LCLC-97TM1,< 2 nM
same,IC50,T47D,> 512 nM
same,IC50,SW13,9.38 nM
same,IC50,MKN-7,> 512 nM
same,IC50,NCI-H716,> 512 nM
same,IC50,MDA-MB-231,0.557 nM
same,IC50,H4,1.98 nM
same,IC50,NCI-H520,< 2 nM
same,IC50,SK-OV-3,2.64 nM
same,IC50,A204,17.3 nM
same,IC50,PC-14,8.01 nM
same,IC50,NCI-H2141,85 nM
same,IC50,KU-19-19,80 nM
same,IC50,LP-1,4.08 nM
same,IC50,RPMI 8402,5.23 nM
same,IC50,LN-405,> 512 nM
same,IC50,KYSE-510,< 2 nM
same,IC50,COLO-741,10.9 nM
same,IC50,NCI-H1437,2.47 nM
same,IC50,NCI-H1623,> 512 nM
same,IC50,SNU-16,189 nM
same,IC50,SK-MM-2,45.6 nM
same,IC50,HGC-27,< 2 nM
same,IC50,J82,7.91 nM
same,IC50,HCC1806,2.4 nM
same,IC50,NCI-H661,19.9 nM
same,IC50,G-361,10.7 nM
same,IC50,NCI-H1693,> 512 nM
same,IC50,COLO-679,< 2 nM
same,IC50,NB12,13.2 nM
same,IC50,OE33,46.9 nM
same,IC50,SK-MES-1,< 2 nM
same,IC50,PC-3,8 nM
same,IC50,NCI-H2452,> 512 nM
same,IC50,DMS-153,19.9 nM
same,IC50,BHY,2.26 nM
same,IC50,RO82-W-1,> 512 nM
same,IC50,MDA-MB-453,> 512 nM
same,IC50,AN3-CA,< 2 nM
same,IC50,UACC-62,66.4 nM
same,IC50,NCI-H345,37 nM
same,IC50,NY,< 2 nM
same,IC50,RMG-I,13.3 nM
same,IC50,Daudi,3.63 nM
same,IC50,CAL-120,44.1 nM
same,IC50,COLO-680N,18 nM
same,IC50,CAL-51,0.971 nM
same,IC50,CPC-N,10 nM
same,IC50,RVH-421,3.67 nM
same,IC50,HCC1937,0.927 nM
same,IC50,CESS,35.4 nM
same,IC50,NCI-H727,8.36 nM
same,IC50,RCM-1,122 nM
same,IC50,CAL-148,> 512 nM
same,IC50,ECC4,> 512 nM
same,IC50,SW1463,> 512 nM
